SMILES strings stand for the structures. Where a name gives a salt, the structure may show the parent alone.

The record followed here is patent US9085531B2 (priority 2004, dated 2015).

The subject of data set [1] is tetrabenazine-induced exploratory loss and ptosis in mice. Nature of the data set: Tetrabenazine assay. The settings on record: mouse, in vivo.

For `COC(=O)C(c1ccccc1)C1CCCCN1.Cl` (stereo not shown) [Ritalin®], the “activity in the tetrabenazine assay” value in data set [1] was “potent activity”.

With `CN1Cc2c(N)cccc2C(c2ccccc2)C1` (stereo not shown) [Nomifensine], the “activity in the tetrabenazine assay” value in data set [1] was “potent biological activity”.

Usually melting point stands for the temperature of the solid-liquid transition. For the compound `CN1Cc2cc(-c3cccnn3)ccc2C(c2cc3ccccc3s2)C1` (stereo not shown) (as salt: maleate), the melting point is 100 to 104 °C.

For the compound `CN1Cc2ccccc2C(C2=Cc3ccccc3CCC2)C1` (stereo not shown) (as salt: maleate), the melting point fell in the range of 178 to 180 °C.
